# Test results reported in patent US12630547B2, “RAS protein degraders, pharmaceutical compositions thereof, and their therapeutic applications” (BioTheryX, Inc., priority 2019, dated 2026).
# What was measured:
# Assay type in all cases: cell-based
# MOLM-13 cells = assay: Cell viability assay (CELLTITER-GLO), MOLM-13 cells; settings: Homo sapiens, MOLM-13, 72 h; Table 2; compound at 10 μM, 3 days; read-out: Effect on MOLM-13 cell viability (% DMSO)
# Protocol: (§1) MOLM-13 cells, MV-4-11 cells, H23, and H358 cells were independently cultured in RPMI 1640 media supplemented with 10% fetal bovine serum, streptomycin and penicillin. The cells were plated in white walled 96-well plates at 4,000 cells/well. The cells were incubated in DMSO (control) or a compound for 3 days at 37° C. under 5% CO2. A CELLTITER-GLO® reagent (100 μL) was then added to each well. After a 10 min incubation with shaking, luminescence was measured using an ENVISION® multimode plate reader.
# In Tables 1 and 2, each compound was tested at 10 μM; and in Table 3, each compound was tested at 1 μM. In Tables 1 to 3, the cell viability values as % DMSO are reported as “A,” “B,” “C,” or “D;” where “A” represents a % viability value of less than 10%; “B” represents a % viability value of no less than 10% and less than 25%; “C” represents a % viability value of no less than 25% and less than 50%; and “D” represents a % viability value of no less than 50%. Compound A is […]
# H358 cells = assay: Cell viability assay (CELLTITER-GLO), H358 cells; settings: Table 4; 3 days
# Protocol: as §1
# In Tables 1 and 2, each compound was tested at 10 μM; and in Table 3, each compound was tested at 1 μM. In Tables 1 to 3, the cell viability values as % DMSO are reported as “A,” “B,” “C,” or “D;” where “A” represents a % viability value of less than 10%; “B” represents a % viability value of no less than 10% and less than 25%; “C” represents a % viability value of no less than 25% and less than 50%; and “D” represents a % viability value of no less than 50%. Compound A is
# (§2) IC50 values are summarized in Table 4, where “A” represents an IC50 value of no greater than 1 μM, “B” represents an IC50 value of greater than 1 μM and no greater than 5 μM, “C” represents an IC50 value of greater than 5 μM and no greater than 10 μM, and “D” represents an IC50 value of greater than 10 μM.
# H23 cells = assay: Cell viability assay (CELLTITER-GLO), H23 cells; settings: Table 4; 3 days
# Protocol: as §1, §2
SMILES,viability at 10 µM (MOLM-13 cells) [%],"Inhibition of H358 cells, IC50 (class) (H358 cells)","Inhibition of H23 cells, IC50 (class) (H23 cells)"
"O=C1CCC(N2Cc3c(cc(F)cc3C3CCN(CCCCCCCOc4cccc(F)c4-c4c(Cl)cc5c(N6CCN(C(=O)C7COC7)CC6)ncnc5c4F)CC3)C2=O)C(=O)N1 (stereo not shown) [Compound 81, 3-(4-(1-(7-(2-(6-Chloro-8-fluoro-4-(4-(oxetane-3-carbonyl)piperazin-1-yl)quinazolin-7-yl)-3-fluorophenoxy)heptyl)piperidin-4-yl)-6-fluoro-1-oxoisoindolin-2-yl)piperidine-2,6-dione]",≥ 50,C′,C′
"C=CC(=O)N1CCN(c2ncnc3c(F)c(-c4c(F)cccc4OCCCCCCCCCCC(=O)N[C@H](C(=O)N4C[C@H](O)C[C@H]4C(=O)NCc4ccc(-c5scnc5C)cc4)C(C)(C)C)c(Cl)cc23)CC1 [Compound 76, (2S,4R)-1-((2S)-2-(11-(2-(4-(4-Acryloylpiperazin-1-yl)-6-chloro-8-fluoroquinazolin-7-yl)-3-fluorophenoxy)undecanamido)-3,3-dimethylbutanoyl)-4-hydroxy-N-(4-(4-methylthiazol-5-yl)benzyl)pyrrolidine-2-carboxamide]",< 10,B′,B′
"C=CC(=O)N1CCN(c2ncnc3c(F)c(-c4cc(OCCOCCOCCC(=O)NCCNc5cccc6c5CN(C5CCC(=O)NC5=O)C6=O)ccc4F)c(Cl)cc23)CC1 (stereo not shown) [Compound 38, 3-(2-(2-(3-(4-(4-Acryloylpiperazin-1-yl)-6-chloro-8-fluoroquinazolin-7-yl)-4-fluorophenoxy)ethoxy)ethoxy)-N-(2-((2-(2,6-dioxopiperidin-3-yl)-1-oxoisoindolin-4-yl)amino)ethyl)propanamide]",≥ 50,D′,D′
"C=C(Cl)C(=O)N1CCN(c2nc(OC[C@@H]3CCCN3C)nc3c(F)c(-c4c(F)cccc4OCCCCCCCN4CCC(c5cc(F)cc6c5CN(C5CCC(=O)NC5=O)C6=O)CC4)c(Cl)cc23)CC1 (stereo partly drawn) [Compound 108, 3-(4-(1-(7-(2-(6-Chloro-4-(4-(2-chloroacryloyl)piperazin-1-yl)-8-fluoro-2-(((S)-1-methylpyrrolidin-2-yl)methoxy)quinazolin-7-yl)-3-fluorophenoxy)heptyl)piperidin-4-yl)-6-fluoro-1-oxoisoindolin-2-yl)piperidine-2,6-dione]",< 10,A′,A′
"CCC(=O)N1CCN(c2ncnc3c(F)c(-c4c(F)cccc4OCCCCCCCN4CCCC(c5cc(F)cc6c5CN(C5CCC(=O)NC5=O)C6=O)C4)c(Cl)cc23)CC1 (stereo not shown) [Compound 87, 3-(4-(1-(7-(2-(6-Chloro-8-fluoro-4-(4-propionylpiperazin-1-yl)quinazolin-7-yl)-3-fluorophenoxy)heptyl)piperidin-3-yl)-6-fluoro-1-oxoisoindolin-2-yl)piperidine-2,6-dione]",< 10,B′,B′
"C=C(Cl)C(=O)N1CCN(c2ncnc3c(F)c(-c4c(F)cccc4OCCC4CCC(CN5CCC(c6cc(F)cc7c6CN(C6CCC(=O)NC6=O)C7=O)CC5)CC4)c(Cl)cc23)CC1 (stereo not shown) [Compound 118, 3-(4-(1-((4-(2-(2-(6-Chloro-4-(4-(2-chloroacryloyl)piperazin-1-yl)-8-fluoroquinazolin-7-yl)-3-fluorophenoxy)ethyl)cyclohexyl)methyl)piperidin-4-yl)-6-fluoro-1-oxoisoindolin-2-yl)piperidine-2,6-dione]",< 10,A′,A′
"CCS(=O)(=O)N1CCN(c2ncnc3c(F)c(-c4c(F)cccc4OCCCCCCCN4CCC(c5cc(F)cc6c5CN(C5CCC(=O)NC5=O)C6=O)CC4)c(Cl)cc23)CC1 (stereo not shown) [Compound 59, 3-(4-(1-(7-(2-(6-Chloro-4-(4-(ethylsulfonyl)piperazin-1-yl)-8-fluoroquinazolin-7-yl)-3-fluorophenoxy)heptyl)piperidin-4-yl)-6-fluoro-1-oxoisoindolin-2-yl)piperidine-2,6-dione]",< 10,B′,B′
"C=CC(=O)N1CCN(c2nc(OCCOCCOCCOCCNc3cccc4c3C(=O)N(C3CCC(=O)NC3=O)C4=O)nc3c2CCN(c2cccc4ccccc24)C3)C[C@H]1C (stereo partly drawn) [Compound 47, 4-((2-(2-(2-(2-((4-((R)-4-Acryloyl-3-methylpiperazin-1-yl)-7-(naphthalen-1-yl)-5,6,7,8-tetrahydropyrido[3,4-d]pyrimidin-2-yl)oxy)ethoxy)ethoxy)ethoxy)ethyl)amino)-2-(2,6-dioxopiperidin-3-yl)isoindoline-1,3-dione]",–,C′,B′
"C=C(Cl)C(=O)N1CCN(c2ncnc3c(F)c(-c4c(F)cccc4OCCc4ccc(CCN5CCC(c6cc(F)cc7c6CN(C6CCC(=O)NC6=O)C7=O)CC5)cc4)c(Cl)cc23)C[C@H]1CC#N (stereo partly drawn) [Compound 131, 2-((2R)-4-(6-Chloro-7-(2-(4-(2-(4-(2-(2,6-dioxopiperidin-3-yl)-6-fluoro-1-oxoisoindolin-4-yl)piperidin-1-yl)ethyl)phenethoxy)-6-fluorophenyl)-8-fluoroquinazolin-4-yl)-1-(2-chloroacryloyl)piperazin-2-yl)acetonitrile]",–,A′,A′
"O=C1CCC(N2Cc3c(cc(F)cc3C3CCN(CCCCCCCOc4cccc(F)c4-c4c(Cl)cc5c(N6CCN(C(=O)C7CCCC7)CC6)ncnc5c4F)CC3)C2=O)C(=O)N1 (stereo not shown) [Compound 51, 3-(4-(1-(7-(2-(6-Chloro-4-(4-(cyclopentanecarbonyl)piperazin-1-yl)-8-fluoroquinazolin-7-yl)-3-fluorophenoxy)heptyl)piperidin-4-yl)-6-fluoro-1-oxoisoindolin-2-yl)piperidine-2,6-dione]",–,B′,B′
"CCC(=O)N1CCN(c2ncnc3c(Cl)c(-c4c(F)cccc4OCCCCCCCCN4CCC(c5cc(F)cc6c5CN(C5CCC(=O)NC5=O)C6=O)CC4)c(F)cc23)CC1 [Compound 49, 3-(4-(1-(8-((R)-2-(8-Chloro-6-fluoro-4-(4-propionylpiperazin-1-yl)quinazolin-7-yl)-3-fluorophenoxy)octyl)piperidin-4-yl)-6-fluoro-1-oxoisoindolin-2-yl)piperidine-2,6-dione]",–,B′,B′
"O=C1CCC(N2Cc3c(cc(F)cc3C3CCN(CCCCCCCOc4cccc(F)c4-c4c(Cl)cc5c(N6CCN(C(=O)CC7CC7)CC6)ncnc5c4F)CC3)C2=O)C(=O)N1 (stereo not shown) [Compound 53, 3-(4-(1-(7-(2-(6-Chloro-4-(4-(2-cyclopropylacetyl)piperazin-1-yl)-8-fluoroquinazolin-7-yl)-3-fluorophenoxy)heptyl)piperidin-4-yl)-6-fluoro-1-oxoisoindolin-2-yl)piperidine-2,6-dione]",–,B′,B′
"O=C1CCC(N2Cc3c(cc(F)cc3C3CCN(CCCCCCCOc4cccc(F)c4-c4c(Cl)cc5c(N6CCN(C(=O)C7CCOCC7)CC6)ncnc5c4F)CC3)C2=O)C(=O)N1 (stereo not shown) [Compound 52, 3-(4-(1-(7-(2-(6-Chloro-8-fluoro-4-(4-(tetrahydro-2H-pyran-4-carbonyl)piperazin-1-yl)quinazolin-7-yl)-3-fluorophenoxy)heptyl)piperidin-4-yl)-6-fluoro-1-oxoisoindolin-2-yl)piperidine-2,6-dione]",–,C′,B′
"O=C1CCC(N2Cc3c(cc(F)cc3C3CCN(CCCCCCCOc4cccc(F)c4-c4c(Cl)cc5c(N6CCN(C(=O)C7CCOC7)CC6)ncnc5c4F)CC3)C2=O)C(=O)N1 (stereo not shown) [Compound 54, 3-(4-(1-(7-(2-(6-Chloro-8-fluoro-4-(4-(tetrahydrofuran-3-carbonyl)piperazin-1-yl)quinazolin-7-yl)-3-fluorophenoxy)heptyl)piperidin-4-yl)-6-fluoro-1-oxoisoindolin-2-yl)piperidine-2,6-dione]",–,C′,B′
"CCC(=O)N1CCN(c2ncnc3c(F)c(-c4c(F)cccc4OCCCCCN4CCC(c5cc(F)cc6c5CN(C5CCC(=O)NC5=O)C6=O)CC4)c(Cl)cc23)CC1 (stereo not shown) [Compound 60, 3-(4-(1-(5-(2-(6-Chloro-8-fluoro-4-(4-propionylpiperazin-1-yl)quinazolin-7-yl)-3-fluorophenoxy)pentyl)piperidin-4-yl)-6-fluoro-1-oxoisoindolin-2-yl)piperidine-2,6-dione]",–,D′,C′
